Test results taken from patent US20130116287A1 (priority 2010, published 2013).
Values joined by “and” are separate entries in the source; they are usually repeats but may differ in a detail not shown here. Equal values may be shown once. Read-outs that look alike come from different tables or passages of the source.

Assays:
Phytophthora infestans = type: in vivo; conditions: 500 ppm of active ingredient; tomato, preventive; evaluated 7 days after inoculation; 100% = no disease
Plasmopara viticola = test: Plasmopara test (grapevines) / preventive; type: in vivo; conditions: 100 ppm of active ingredient, evaluated 6 days after inoculation, 100% = no disease
Procedure: Plasmopara Test (Grapevines)/Preventive
Solvent: 24.5 parts by weight of acetone
24.5 parts by weight of dimethylacetamide
Emulsifier: 1 part by weight of alkylaryl polyglycol ether
To produce a suitable preparation of active compound, 1 part by weight of active compound is mixed with the stated amounts of solvent and emulsifier, and the concentrate is diluted with water to the desired concentration.
To test for preventive activity, young plants are sprayed with the preparation of active compound at the stated rate of application. After the spray coating has dried on, the plants are inoculated with an aqueous spore suspension of Plasmopara viticola and then remain for 1 day in an incubation cabinet at approximately 20° C. and a relative atmospheric humidity of 100%. The plant is subsequently placed for 4 days in a greenhouse at approximately 21° C. and a relative atmospheric humidity of approximately 90%. The plants are then misted and placed for 1 day in an incubation cabinet.
The test is evaluated 6 days after the inoculation. 0% means an efficacy which corresponds to that of the untreated control, while an efficacy of 100% means that no disease is observed.

[1] = Measurement of logP values by HPLC on reversed phase columns (EEC directive 79/831 Annex V.A8); type: physicochemical; conditions: for Log P: pH 2.7, 0.1% formic acid in water / acetonitrile, single value
[2] = HPLC, pH 2.7, 0.1% formic acid, minor isomer
[3] = HPLC, pH 2.7, 0.1% formic acid, main isomer

## Cc1snnc1C(=NOCc1cccc(NC(=O)CSc2ccccc2)n1)c1ccccc1 (mixture of isomers) [Example 6]
Phytophthora infestans
  efficacy: 98%
Plasmopara viticola
  efficacy: 86%
[1]; [2]
  Log P [I2] minor isomer: 4.09

## Cc1snnc1C(=NOCc1csc(NC(=O)COc2ccccc2)n1)c1ccccc1 (mixture of isomers) [Example 7]
Phytophthora infestans
  efficacy: 100%
Plasmopara viticola
  efficacy: 88%
[1]; HPLC, pH 2.7, 0.1% formic acid, two values without isomer tag
  Log P (two values printed, isomers not assigned): 3.71 and 3.83

## Cc1snnc1C(=NOCc1csc(NC(=O)COCc2ccccc2)n1)c1ccccc1 (mixture of isomers) [Example 28]
Phytophthora infestans
  efficacy: 100%
Plasmopara viticola
  efficacy: 93%
[1]; [3]
  Log P [I1] main isomer: 3.96
[1]; [2]
  Log P [I2] minor isomer: 3.85

## COc1ccccc1OCC(=O)Nc1nc(CON=C(c2ccccc2)c2nnsc2C)cs1 (mixture of isomers) [Example 57]
Phytophthora infestans
  efficacy: 100%
Plasmopara viticola
  efficacy: 72%
[1]; [3]
  Log P [I1] main isomer: 3.89
[1]; [2]
  Log P [I2] minor isomer: 3.78

## Cc1snnc1C(=NOCc1cccc(NC(=O)C(F)(F)Oc2ccccc2)n1)c1ccccc1 [Example 2]
Phytophthora infestans
  efficacy: 100%
Plasmopara viticola
  efficacy: 74%
[1]; HPLC
  Log P: 4.54

## Cc1snnc1C(=NOCc1csc(NC(=O)COCCC(C)C)n1)c1ccccc1 [Example 3]
Phytophthora infestans
  efficacy: 95%
Plasmopara viticola
  efficacy: 84%
[1]; HPLC
  Log P: 4.36

## Cc1snnc1C(=NOCc1csc(NC(=O)COc2ccccc2)n1)c1ccccc1 [Example 8]
Phytophthora infestans
  efficacy: 100%
Plasmopara viticola
  efficacy: 72%
[1]; HPLC
  Log P: 3.8

## Cc1snnc1C(=NOCc1csc(NC(=O)C(C)Oc2ccccc2)n1)c1ccccc1 (stereo not shown) [Example 15]
Phytophthora infestans
  efficacy: 100%
Plasmopara viticola
  efficacy: 93%
[1]; HPLC
  Log P: 4.04

## Cc1snnc1C(=NOCc1csc(NC(=O)COC2CCCC2)n1)c1ccccc1 [Example 23]
Phytophthora infestans
  efficacy: 95%
Plasmopara viticola
  efficacy: 91%
[1]; HPLC
  Log P: 4.09

## C=CCOC(C)C(=O)Nc1nc(CON=C(c2ccccc2)c2nnsc2C)cs1 (stereo not shown) [Example 25]
Phytophthora infestans
  efficacy: 98%
Plasmopara viticola
  efficacy: 77%
[1]; HPLC
  Log P: 3.61

## Cc1snnc1C(=NOCc1csc(NC(=O)COCc2ccccc2)n1)c1ccccc1 [Example 27]
Phytophthora infestans
  efficacy: 100%
Plasmopara viticola
  efficacy: 89%
[1]; HPLC
  Log P: 3.92

## Cc1snnc1C(=NOCc1csc(NC(=O)C(C)OCC2CC2)n1)c1ccccc1 (stereo not shown) [Example 39]
Phytophthora infestans
  efficacy: 97%
Plasmopara viticola
  efficacy: 91%
[1]; HPLC
  Log P: 3.83

## Cc1snnc1C(=NOCc1csc(NC(=O)COCC2CCC2)n1)c1ccccc1 [Example 53]
Phytophthora infestans
  efficacy: 97%
Plasmopara viticola
  efficacy: 95%
[1]; HPLC
  Log P: 4.11

## Cc1snnc1C(=NOCc1csc(NC(=O)COC2CCCCC2)n1)c1ccccc1 [Example 59, 2-(cyclohexyloxy)-N-{4-[({[(5-methyl-1,2,3-thiadiazol-4-yl)(phenyl)methylene]amino}oxy)methyl]-1,3-thiazol-2-yl}acetamide]
Phytophthora infestans
  efficacy: 97%
Plasmopara viticola
  efficacy: 75%
[1]; pH 2.7, HPLC, pH 2.7, 0.1% formic acid, main isomer, read-out: Log P [I1] main isomer
  chromatographic logP: 4.41
[1]; pH 2.7, HPLC, pH 2.7, 0.1% formic acid, minor isomer, read-out: Log P [I2] minor isomer
  chromatographic logP: 4.32
[1]; reversed phase HPLC columns, pH 2.7, mixture of Z and E diastereoisomers, preparation example 1, read-out: logP(HCOOH)
  chromatographic logP: 4.41

## Cc1snnc1C(=NOCc1csc(NC(=O)COCC(C)C)n1)c1ccccc1 [Example 63]
Phytophthora infestans
  efficacy: 100%
Plasmopara viticola
  efficacy: 75%
[1]; HPLC
  Log P: 4.01

## Cc1snnc1C(=NOCc1csc(NC(=O)COC(C)C)n1)c1ccccc1 [Example 65]
Phytophthora infestans
  efficacy: 95%
Plasmopara viticola
  efficacy: 84%
[1]; HPLC
  Log P: 3.59

## Cc1snnc1C(=NOCc1csc(NC(=O)C(C)OCC2CCCCC2)n1)c1ccccc1 (stereo not shown) [Example 73]
Phytophthora infestans
  efficacy: 100%
[1]; HPLC
  Log P: 5.35

## Cc1snnc1C(=NOCc1cccc(NC(=O)C(C)OCC2CCCCC2)n1)c1ccccc1 (stereo not shown) [Example 74]
Phytophthora infestans
  efficacy: 94%
[1]; HPLC
  Log P: 5.87

## Cc1snnc1C(=NOCc1csc(NC(=O)C(C)OCC2CCCC2)n1)c1ccccc1 (stereo not shown) [Example 75]
Phytophthora infestans
  efficacy: 100%
[1]; HPLC
  Log P: 4.9

## Cc1snnc1C(=NOCc1cccc(NC(=O)C(C)OCC2CCCC2)n1)c1ccccc1 (stereo not shown) [Example 76]
Phytophthora infestans
  efficacy: 97%
[1]; HPLC
  Log P: 5.39

## Cc1snnc1C(=NOCc1csc(NC(=O)COCCC2CCCC2)n1)c1ccccc1 [Example 77]
Phytophthora infestans
  efficacy: 95%
[1]; HPLC
  Log P: 4.91

## Cc1snnc1C(=NOCc1cccc(NC(=O)COCCC2CCCC2)n1)c1ccccc1 [Example 78]
Phytophthora infestans
  efficacy: 89%
[1]; HPLC
  Log P: 5.39

## Cc1snnc1C(=NOCc1csc(NC(=O)COCCC2CCCCC2)n1)c1ccccc1 [Example 83]
Phytophthora infestans
  efficacy: 95%
[1]; HPLC
  Log P: 5.28

## Cc1snnc1C(=NOCc1cccc(NC(=O)COCCC2CCCCC2)n1)c1ccccc1 [Example 84]
Phytophthora infestans
  efficacy: 75%
[1]; HPLC
  Log P: 5.81

## Cc1snnc1C(=NOCc1csc(NC(=O)C(C)OCC(C)C)n1)c1ccccc1 (stereo not shown) [Example 85]
Phytophthora infestans
  efficacy: 95%
Plasmopara viticola
  efficacy: 73%

## Cc1snnc1C(=NOCc1cccc(NC(=O)C(C)OCC(C)C)n1)c1ccccc1 (stereo not shown) [Example 86]
Phytophthora infestans
  efficacy: 95%
[1]; HPLC
  Log P: 4.83

## Cc1snnc1C(=NOCc1csc(NC(=O)CSC2CCCCC2)n1)c1ccccc1 [Example 87]
Phytophthora infestans
  efficacy: 97%
[1]; HPLC
  Log P: 4.46

## Cc1snnc1C(=NOCc1cccc(NC(=O)CSC2CCCCC2)n1)c1ccccc1 [Example 88]
Phytophthora infestans
  efficacy: 97%
[1]; HPLC
  Log P: 4.87

## C=CCSCC(=O)Nc1nc(CON=C(c2ccccc2)c2nnsc2C)cs1 [Example 91]
Phytophthora infestans
  efficacy: 95%
[1]; HPLC
  Log P: 3.52

## C=CCSCC(=O)Nc1cccc(CON=C(c2ccccc2)c2nnsc2C)n1 [Example 92]
Phytophthora infestans
  efficacy: 90%
[1]; HPLC
  Log P: 3.79

## Cc1snnc1C(=NOCc1cccc(NC(=O)C(C)OCc2ccccc2)n1)c1ccccc1 (stereo not shown) [Example 94]
Phytophthora infestans
  efficacy: 95%
[1]; HPLC
  Log P: 4.58

## Cc1snnc1C(=NOCc1csc(NC(=O)C(C)Oc2ccc(F)cc2)n1)c1ccccc1 (stereo not shown) [Example 95]
Phytophthora infestans
  efficacy: 100%
[1]; HPLC
  Log P: 4.06

## Cc1snnc1C(=NOCc1csc(NC(=O)C(C)SCc2ccccc2)n1)c1ccccc1 (stereo not shown) [Example 98]
Phytophthora infestans
  efficacy: 98%
[1]; HPLC
  Log P: 4.26

## Cc1snnc1C(=NOCc1cccc(NC(=O)C(C)SCc2ccccc2)n1)c1ccccc1 (stereo not shown) [Example 99]
Phytophthora infestans
  efficacy: 100%
[1]; HPLC
  Log P: 4.58

## Cc1snnc1C(=NOCc1csc(NC(=O)C(C)(C)Oc2ccccc2)n1)c1ccccc1 [Example 102]
Phytophthora infestans
  efficacy: 100%
[1]; HPLC
  Log P: 4.53

## Cc1snnc1C(=NOCc1cccc(NC(=O)C(C)(C)Oc2ccccc2)n1)c1ccccc1 [Example 103]
Phytophthora infestans
  efficacy: 100%
[1]; HPLC
  Log P: 4.93

## C#CCOC(CC)C(=O)Nc1nc(CON=C(c2ccccc2)c2nnsc2C)cs1 (stereo not shown) [Example 104]
Phytophthora infestans
  efficacy: 98%
[1]; HPLC
  Log P: 3.61

## C#CCOC(CC)C(=O)Nc1cccc(CON=C(c2ccccc2)c2nnsc2C)n1 (stereo not shown) [Example 105]
Phytophthora infestans
  efficacy: 95%
[1]; HPLC
  Log P: 3.9

## Cc1snnc1C(=NOCc1csc(NC(=O)CSC2CCCC2)n1)c1ccccc1 [Example 106]
Phytophthora infestans
  efficacy: 92%
[1]; HPLC
  Log P: 4.14

## Cc1snnc1C(=NOCc1cccc(NC(=O)CSC2CCCC2)n1)c1ccccc1 [Example 107]
Phytophthora infestans
  efficacy: 92%
[1]; HPLC
  Log P: 4.51

## Cc1snnc1C(=NOCc1csc(NC(=O)COCC2CCCC2)n1)c1ccccc1 [Example 108]
Phytophthora infestans
  efficacy: 100%
[1]; HPLC
  Log P: 4.53

## Cc1snnc1C(=NOCc1cccc(NC(=O)COCC2CCCC2)n1)c1ccccc1 [Example 109]
Phytophthora infestans
  efficacy: 89%
[1]; HPLC
  Log P: 5.01

## CC(=NOCC(=O)Nc1cccc(CON=C(c2ccccc2)c2nnsc2C)n1)c1ccccc1 [Example 112]
Phytophthora infestans
  efficacy: 95%
[1]; HPLC
  Log P: 4.51
